Article PMC12649549, “Sequence Permutation Generated Lysine and Tryptophan-Rich Antimicrobial Peptides with Enhanced Therapeutic Index” (Antibiotics, 2025)
Read-outs that look alike come from different tables or passages of the source.

Tests used:
Gram-negative bacteria = assay: Geometric mean MIC and therapeutic index, Gram-negative bacteria; assay type: cell-based; conditions: Gram-negative bacteria
Method: In this study, we aimed to investigate the potential of W5K series peptides for therapeutic use. To evaluate their efficacy for antibacterial therapy, we used the Therapeutic Index (TI) as a measure of their cell selectivity. The TI was calculated as the ratio of the concentration causing 10% hemolysis of human red blood cells (HC10) to the geometric mean minimum inhibitory concentration (GM) of the peptides against both Gram-negative and Gram-positive bacteria. This parameter was used to quantitatively assess the balance between antibacterial potency and cytotoxicity among the W5K derivatives.
(§1) The antibacterial activities of the peptides in Müller-Hinton (MH) broth and modified LYM broth were determined using the standard broth microdilution method as per Clinical and Laboratory Standards Institute (CLSI) guidelines. The LYM broth was prepared with specific components and adjusted to different conditions, including varying concentrations of NaCl and MgCl2, and different pH levels. To prepare the LYM broth, 5.4 mM KCl, 5.6 mM Na2HPO4, 0.5 mM MgSO4, and 1.0 mM sodium citrate were added. Additionally, 0.4 mg of ZnCl2, 2.0 mg of FeCl3·6H2O, 0.1 mg of CuSO4·5H2O, 0.1 mg of MnSO4·H2O, 0.1 mg of Na2B4O7∙10H2O, 700 mg of amino acid mixtures without tryptophan (Takara Bio Inc., San Jose, CA, USA), and 20 mg of L-tryptophan were added per liter of medium. The pH was adjusted to 7.4, and a vitamin mixture (100X, Sigma) and glucose concentration of 2% were added. For different conditions of LYM broth, NaCl concentrations of 300, 200, 150, and 50 mM, MgCl2 concentrations of 2.5, 1.5, and 0.5 mM, and pH levels of 6.5, 5.5, and 4.5 were adjusted. Bacterial strains were incubated in MH broth overnight, regrown, and diluted to a final concentration of 5 × 10^5 CFU/mL. Peptides were added to each well at final concentrations of 50, 25, 12.5, 6.25, 3.13, 1.56, and 0.78 µg/mL, and 99 µL of diluted microbes was loaded into each well of a polypropylene 96-well plate. […] The Morpheus HeatMap software (https://software.broadinstitute.org/morpheus/) was used to display MIC values on a color scale. All experiments were independently repeated three times.

S. aureus ATCC 33591 = system: S. aureus ATCC 33591
Method: (§2) The antibacterial and salt-resistant activity of the peptides was tested using Escherichia coli (ATCC 25922), Pseudomonas aeruginosa Migula (ATCC 27853), Acinetobacter sp. (BCRC number 14B0091, BCRC number 14B0097, and BCRC number 14B0100), and Staphylococcus aureus sp. strains (ATCC 25923, ATCC 33591, ATCC 33592, ATCC 33593, and ATCC 6538). All bacteria were obtained from the Food Industry Research and Development Institute (Hsinchu, Taiwan) and cultured in sterilized Müller-Hinton (MH) broth at 37 °C and 200 rpm for 8 h. The inoculum concentrations were determined by measuring the optical density at 600 nm (OD 600 = 1, approximately 10^8 CFU/mL) using an Ultrospec 2100 pro UV-Visible spectrophotometer (Biochrom Ltd., Cambridge, UK) after 8 h of culture.
as §1

S. aureus ATCC 6538 = system: S. aureus ATCC 6538
Method: as §2, §1

[1] = system: A. baumannii 14B00100 (Acinetobacter sp., BCRC number 14B0100)
Method: as §2, §1

[2] = system: Escherichia coli (ATCC 25922)
Method: as §2, §1

[3] = system: A. baumannii 14B0091 (Acinetobacter sp., BCRC number 14B0091)
Method: as §2, §1

S. aureus ATCC 25923 = system: S. aureus ATCC 25923
Method: as §2, §1

[4] = LYM broth, 0 mM NaCl, 16 h, 37 °C
[5] = LYM broth, 50 mM NaCl, 16 h, 37 °C
[6] = LYM broth, 100 mM NaCl, 16 h, 37 °C
[7] = LYM broth, 200 mM (NaCl), 16 h, 37 °C
[8] = LYM broth, 300 mM (NaCl), 16 h, 37 °C
[9] = MH broth, 5 × 10^5 CFU/mL, 16 h, 37 °C, repeated three times

Ac-KWLAKKKKWRKWL-NH2 [Peptide W5K07]
GM G− (geometric mean of the MIC values) (Gram-negative bacteria; MH broth, MIC >50 µg/mL counted as 100 µg/mL): 21.8 µg/mL | Therapeutic Index (TI) G− (Gram-negative bacteria; HC10/GM): 5.0 | MIC (S. aureus ATCC 33591; [4]): 25 µg/mL | MIC (S. aureus ATCC 33591; LYM broth, 0.5 mM MgCl2): 25 µg/mL | MIC (S. aureus ATCC 33591; LYM broth, 1.5 mM MgCl2): 25 µg/mL | MIC (S. aureus ATCC 33591; LYM broth, 2.5 mM MgCl2): 25 µg/mL | MIC (S. aureus ATCC 33591; [5]): 25 µg/mL | MIC (S. aureus ATCC 33591; [6]): 50 µg/mL | MIC (S. aureus ATCC 33591; [7]): 50 µg/mL | MIC (S. aureus ATCC 33591; [8]): >50 µg/mL | MIC (S. aureus ATCC 33591; LYM broth, pH 4.5): 25 µg/mL | MIC (S. aureus ATCC 33591; LYM broth, pH 5.5): 25 µg/mL | MIC (S. aureus ATCC 33591; LYM broth, pH 6.5): 12.5 µg/mL | MIC (S. aureus ATCC 33591; [9]): >50 µg/mL | MIC (S. aureus ATCC 6538; [4]): 6.25 µg/mL | MIC (S. aureus ATCC 6538; LYM broth, 0.5 mM MgCl2): 3.13 µg/mL | MIC (S. aureus ATCC 6538; LYM broth, 1.5 mM MgCl2): 6.25 µg/mL | MIC (S. aureus ATCC 6538; LYM broth, 2.5 mM MgCl2): 6.25 µg/mL | MIC (S. aureus ATCC 6538; [5]): 12.5 µg/mL | MIC (S. aureus ATCC 6538; [6]): 12.5 µg/mL | MIC (S. aureus ATCC 6538; [7]): 50 µg/mL | MIC (S. aureus ATCC 6538; [8]): >50 µg/mL | MIC (S. aureus ATCC 6538; LYM broth, pH 4.5): 6.25 µg/mL | MIC (S. aureus ATCC 6538; LYM broth, pH 5.5): 6.25 µg/mL | MIC (S. aureus ATCC 6538; LYM broth, pH 6.5): 3.13 µg/mL | MIC (S. aureus ATCC 6538; [9]): >50 µg/mL | MIC [1, 4]: 3.13 µg/mL | MIC ([1]; LYM broth, 0.5 mM MgCl2): 3.13 µg/mL | MIC ([1]; LYM broth, 1.5 mM MgCl2): 3.13 µg/mL | MIC ([1]; LYM broth, 2.5 mM MgCl2): 3.13 µg/mL | MIC [1, 5]: 6.25 µg/mL | MIC [1, 6]: 6.25 µg/mL | MIC [1, 7]: 25 µg/mL | MIC [1, 8]: 50 µg/mL | MIC ([1]; LYM broth, pH 4.5): 3.13 µg/mL | MIC ([1]; LYM broth, pH 5.5): 3.13 µg/mL | MIC ([1]; LYM broth, pH 6.5): 3.13 µg/mL | MIC [1, 9]: 12.5 µg/mL | MIC [2, 4]: 12.5 µg/mL | MIC ([2]; LYM broth, 0.5 mM MgCl2): 12.5 µg/mL | MIC ([2]; LYM broth, 1.5 mM MgCl2): 25 µg/mL | MIC ([2]; LYM broth, 2.5 mM MgCl2): 25 µg/mL | MIC [2, 5]: 25 µg/mL | MIC [2, 6]: 50 µg/mL | MIC [2, 7]: >50 µg/mL | MIC [2, 8]: >50 µg/mL | MIC ([2]; LYM broth, pH 4.5): 12.5 µg/mL | MIC ([2]; LYM broth, pH 5.5): 6.25 µg/mL | MIC ([2]; LYM broth, pH 6.5): 6.25 µg/mL | MIC [2, 9]: 50 µg/mL | MIC [3, 4]: 3.13 µg/mL | MIC ([3]; LYM broth, 0.5 mM MgCl2): 3.13 µg/mL | MIC ([3]; LYM broth, 1.5 mM MgCl2): 3.13 µg/mL | MIC ([3]; LYM broth, 2.5 mM MgCl2): 3.13 µg/mL | MIC [3, 5]: 6.25 µg/mL | MIC [3, 6]: 6.25 µg/mL | MIC [3, 7]: 50 µg/mL | MIC [3, 8]: >50 µg/mL | MIC ([3]; LYM broth, pH 4.5): 6.25 µg/mL | MIC ([3]; LYM broth, pH 5.5): 3.13 µg/mL | MIC ([3]; LYM broth, pH 6.5): 3.13 µg/mL | MIC [3, 9]: 12.5 µg/mL | MIC (S. aureus ATCC 25923; [4]): 6.25 µg/mL | MIC (S. aureus ATCC 25923; LYM broth, 0.5 mM MgCl2): 6.25 µg/mL | MIC (S. aureus ATCC 25923; LYM broth, 1.5 mM MgCl2): 12.5 µg/mL | MIC (S. aureus ATCC 25923; LYM broth, 2.5 mM MgCl2): 12.5 µg/mL | MIC (S. aureus ATCC 25923; [5]): 12.5 µg/mL | MIC (S. aureus ATCC 25923; [6]): 25 µg/mL | MIC (S. aureus ATCC 25923; [7]): 50 µg/mL | MIC (S. aureus ATCC 25923; [8]): >50 µg/mL | MIC (S. aureus ATCC 25923; LYM broth, pH 4.5): 12.5 µg/mL | MIC (S. aureus ATCC 25923; LYM broth, pH 5.5): 6.25 µg/mL | MIC (S. aureus ATCC 25923; LYM broth, pH 6.5): 3.13 µg/mL | MIC (S. aureus ATCC 25923; [9]): 50 µg/mL
